Each block holds one compound with its values, some of them ahead of it.
Columns and labels:
Experiment in all cases: KINOMEscan competition binding
Settings in all cases: compound 10.0 µM
AURKB (human) = AURKB (human) (UniProt Q96GD4)
BMP2K (human) = BMP2K (human) (UniProt Q9NSY1)
BRSK2 (human) = BRSK2 (human) (UniProt Q8IWQ3)
CIT (human) = CIT (human) (UniProt O14578)
CLK1 (human) = CLK1 (human) (UniProt P49759)
CLK4 (human) = CLK4 (human) (UniProt Q9HAZ1)
CSNK2A2 (human) = CSNK2A2 (human) (UniProt P19784)
DAPK3 (human) = DAPK3 (human) (UniProt O43293)
DYRK1B (human) = DYRK1B (human) (UniProt Q9Y463)
[1] = system: EGFR (human), P00533 [747-751 del / S ins]
[2] = system: FLT3 (human), P36888 [D835Y]
[3] = system: FLT3 (human), P36888 [ITD]
GAK (human) = GAK (human) (UniProt O14976)
[4] = system: KIT (human), P10721 [D816V]
[5] = system: KIT (human), P10721 [V559D/T670I]
[6] = system: KIT (human), P10721 [V559D/V654A]
MAP2K3 (human) = MAP2K3 (human) (UniProt P46734)
MAP3K7 (human) = MAP3K7 (human) (UniProt O43318)
MAP4K2 (human) = MAP4K2 (human) (UniProt Q12851)
MAPK8 (human) = MAPK8 (human) (UniProt P45983)
MELK (human) = MELK (human) (UniProt Q14680)
MKNK2 (human) = MKNK2 (human) (UniProt Q9HBH9)
PIK3CG (human) = PIK3CG (human) (UniProt P48736)
PIM2 (human) = PIM2 (human) (UniProt Q9P1W9)
PIM3 (human) = PIM3 (human) (UniProt Q86V86)
PIP5K1A (human) = PIP5K1A (human) (UniProt Q99755)
PLK4 (human) = PLK4 (human) (UniProt O00444)
PRKD1 (human) = PRKD1 (human) (UniProt Q15139)
PRKD3 (human) = PRKD3 (human) (UniProt O94806)
RIPK2 (human) = RIPK2 (human) (UniProt O43353)
RPS6KA2 KD2 (human) = RPS6KA2 KD2 (human) (UniProt Q15349)
RPS6KA4 KD2 (human) = RPS6KA4 KD2 (human) (UniProt O75676)
RPS6KA6 KD2 (human) = RPS6KA6 KD2 (human) (UniProt Q9UK32)
SRPK2 (human) = SRPK2 (human) (UniProt P78362)
STK11 (human) = STK11 (human) (UniProt Q15831)
STK17B (human) = STK17B (human) (UniProt O94768)
TAOK1 (human) = TAOK1 (human) (UniProt Q7L7X3)
TLK1 (human) = TLK1 (human) (UniProt Q9UKI8)
TNIK (human) = TNIK (human) (UniProt Q9UKE5)
TTK (human) = TTK (human) (UniProt P33981)
[7] = biological target: TYK2 JH2 pseudokinase (human) (UniProt P29597)
ULK2 (human) = ULK2 (human) (UniProt Q8IYT8)

Chain of MELK (human) (Q14680 whole entry, looked up): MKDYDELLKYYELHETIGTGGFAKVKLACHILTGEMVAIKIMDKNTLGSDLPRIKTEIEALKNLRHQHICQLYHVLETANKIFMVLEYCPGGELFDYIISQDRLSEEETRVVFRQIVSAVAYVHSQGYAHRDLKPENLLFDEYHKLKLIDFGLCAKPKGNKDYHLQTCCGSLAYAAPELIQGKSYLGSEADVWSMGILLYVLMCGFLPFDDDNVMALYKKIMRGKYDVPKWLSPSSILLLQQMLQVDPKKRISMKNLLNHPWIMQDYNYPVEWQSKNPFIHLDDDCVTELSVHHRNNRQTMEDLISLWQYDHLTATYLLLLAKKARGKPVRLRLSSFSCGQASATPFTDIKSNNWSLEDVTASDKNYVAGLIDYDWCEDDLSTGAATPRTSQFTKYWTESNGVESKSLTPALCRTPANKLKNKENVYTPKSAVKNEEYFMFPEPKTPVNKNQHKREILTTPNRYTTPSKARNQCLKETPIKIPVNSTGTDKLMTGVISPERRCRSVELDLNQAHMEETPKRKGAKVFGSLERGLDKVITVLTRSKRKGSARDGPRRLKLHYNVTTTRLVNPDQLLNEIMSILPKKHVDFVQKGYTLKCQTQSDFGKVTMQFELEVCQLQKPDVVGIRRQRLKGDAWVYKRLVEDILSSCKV
Chain of DYRK1B (human) (Q9Y463 whole entry, looked up): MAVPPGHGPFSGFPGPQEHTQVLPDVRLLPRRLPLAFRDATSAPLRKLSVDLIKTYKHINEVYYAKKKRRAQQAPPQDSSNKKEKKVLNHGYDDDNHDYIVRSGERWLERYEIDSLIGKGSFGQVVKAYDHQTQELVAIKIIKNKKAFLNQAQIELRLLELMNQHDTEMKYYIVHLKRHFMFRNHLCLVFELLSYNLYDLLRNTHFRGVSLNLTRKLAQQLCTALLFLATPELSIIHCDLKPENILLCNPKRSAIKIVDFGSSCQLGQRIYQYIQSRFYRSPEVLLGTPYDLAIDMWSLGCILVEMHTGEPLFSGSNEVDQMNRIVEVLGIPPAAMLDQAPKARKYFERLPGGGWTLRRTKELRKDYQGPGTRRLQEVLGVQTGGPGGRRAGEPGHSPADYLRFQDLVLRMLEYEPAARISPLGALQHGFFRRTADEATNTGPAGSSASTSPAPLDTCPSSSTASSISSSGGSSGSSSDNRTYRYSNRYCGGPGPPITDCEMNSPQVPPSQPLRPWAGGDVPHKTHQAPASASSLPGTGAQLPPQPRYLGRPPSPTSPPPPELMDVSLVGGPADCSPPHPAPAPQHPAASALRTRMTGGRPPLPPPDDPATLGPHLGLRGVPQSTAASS
Chain of TLK1 (human) (Q9UKI8 whole entry, looked up): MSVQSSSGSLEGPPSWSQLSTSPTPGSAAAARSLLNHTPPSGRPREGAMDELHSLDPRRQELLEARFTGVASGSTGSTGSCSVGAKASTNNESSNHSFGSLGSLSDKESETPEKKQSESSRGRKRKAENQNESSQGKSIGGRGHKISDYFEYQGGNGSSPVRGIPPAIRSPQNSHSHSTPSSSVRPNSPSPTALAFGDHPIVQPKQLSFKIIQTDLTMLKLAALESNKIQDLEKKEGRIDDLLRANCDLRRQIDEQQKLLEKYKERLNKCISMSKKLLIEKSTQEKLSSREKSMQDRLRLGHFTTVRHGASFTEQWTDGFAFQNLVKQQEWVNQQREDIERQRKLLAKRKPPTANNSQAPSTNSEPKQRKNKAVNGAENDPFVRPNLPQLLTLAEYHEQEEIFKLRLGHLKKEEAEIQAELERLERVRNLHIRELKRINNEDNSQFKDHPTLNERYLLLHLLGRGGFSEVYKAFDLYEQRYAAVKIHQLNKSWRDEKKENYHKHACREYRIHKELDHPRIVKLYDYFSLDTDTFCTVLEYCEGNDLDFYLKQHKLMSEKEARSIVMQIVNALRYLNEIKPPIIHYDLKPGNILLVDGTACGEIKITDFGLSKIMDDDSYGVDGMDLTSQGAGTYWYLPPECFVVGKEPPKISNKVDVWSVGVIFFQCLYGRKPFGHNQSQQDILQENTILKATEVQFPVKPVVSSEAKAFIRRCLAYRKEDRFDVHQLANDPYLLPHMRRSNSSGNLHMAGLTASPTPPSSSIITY
Chain of SRPK2 (human) (P78362 whole entry, looked up): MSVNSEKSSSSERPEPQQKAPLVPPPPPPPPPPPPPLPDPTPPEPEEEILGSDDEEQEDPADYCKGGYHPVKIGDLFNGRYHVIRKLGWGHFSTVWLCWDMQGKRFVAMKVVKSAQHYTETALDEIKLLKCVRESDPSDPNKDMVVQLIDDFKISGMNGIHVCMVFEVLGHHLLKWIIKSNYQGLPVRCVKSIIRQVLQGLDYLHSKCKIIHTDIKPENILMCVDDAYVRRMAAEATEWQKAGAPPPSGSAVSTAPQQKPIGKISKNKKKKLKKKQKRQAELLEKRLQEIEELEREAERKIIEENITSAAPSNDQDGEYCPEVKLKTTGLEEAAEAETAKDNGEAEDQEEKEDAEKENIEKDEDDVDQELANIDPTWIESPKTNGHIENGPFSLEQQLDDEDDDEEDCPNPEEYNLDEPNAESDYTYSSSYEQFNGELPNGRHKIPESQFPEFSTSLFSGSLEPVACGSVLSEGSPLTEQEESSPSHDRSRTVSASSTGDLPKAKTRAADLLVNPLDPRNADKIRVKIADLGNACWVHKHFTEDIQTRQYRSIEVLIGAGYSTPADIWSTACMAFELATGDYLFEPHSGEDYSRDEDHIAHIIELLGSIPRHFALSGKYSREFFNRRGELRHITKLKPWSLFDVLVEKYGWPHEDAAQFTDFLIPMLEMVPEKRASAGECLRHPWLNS
Chain of RPS6KA2 KD2 (human) (Q15349 whole entry, looked up): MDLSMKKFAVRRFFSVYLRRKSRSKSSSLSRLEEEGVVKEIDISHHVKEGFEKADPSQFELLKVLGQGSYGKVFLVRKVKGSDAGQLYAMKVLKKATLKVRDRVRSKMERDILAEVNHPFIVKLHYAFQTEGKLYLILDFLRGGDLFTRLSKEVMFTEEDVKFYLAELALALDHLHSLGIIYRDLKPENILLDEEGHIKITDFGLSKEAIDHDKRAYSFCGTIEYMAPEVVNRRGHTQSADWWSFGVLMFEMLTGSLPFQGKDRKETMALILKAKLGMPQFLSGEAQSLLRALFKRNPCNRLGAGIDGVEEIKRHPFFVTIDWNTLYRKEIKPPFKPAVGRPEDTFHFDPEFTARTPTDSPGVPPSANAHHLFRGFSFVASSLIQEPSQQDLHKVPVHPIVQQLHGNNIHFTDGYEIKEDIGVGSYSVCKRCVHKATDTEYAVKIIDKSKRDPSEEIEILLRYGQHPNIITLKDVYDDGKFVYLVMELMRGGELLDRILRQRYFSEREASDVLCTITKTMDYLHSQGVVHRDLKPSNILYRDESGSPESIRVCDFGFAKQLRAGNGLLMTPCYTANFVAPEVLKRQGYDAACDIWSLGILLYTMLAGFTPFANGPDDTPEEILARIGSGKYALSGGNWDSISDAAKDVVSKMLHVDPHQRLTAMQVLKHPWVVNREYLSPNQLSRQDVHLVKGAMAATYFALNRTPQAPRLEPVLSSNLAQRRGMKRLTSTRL
Chain of KIT (human), P10721 [D816V] (P10721 whole entry D816V, looked up): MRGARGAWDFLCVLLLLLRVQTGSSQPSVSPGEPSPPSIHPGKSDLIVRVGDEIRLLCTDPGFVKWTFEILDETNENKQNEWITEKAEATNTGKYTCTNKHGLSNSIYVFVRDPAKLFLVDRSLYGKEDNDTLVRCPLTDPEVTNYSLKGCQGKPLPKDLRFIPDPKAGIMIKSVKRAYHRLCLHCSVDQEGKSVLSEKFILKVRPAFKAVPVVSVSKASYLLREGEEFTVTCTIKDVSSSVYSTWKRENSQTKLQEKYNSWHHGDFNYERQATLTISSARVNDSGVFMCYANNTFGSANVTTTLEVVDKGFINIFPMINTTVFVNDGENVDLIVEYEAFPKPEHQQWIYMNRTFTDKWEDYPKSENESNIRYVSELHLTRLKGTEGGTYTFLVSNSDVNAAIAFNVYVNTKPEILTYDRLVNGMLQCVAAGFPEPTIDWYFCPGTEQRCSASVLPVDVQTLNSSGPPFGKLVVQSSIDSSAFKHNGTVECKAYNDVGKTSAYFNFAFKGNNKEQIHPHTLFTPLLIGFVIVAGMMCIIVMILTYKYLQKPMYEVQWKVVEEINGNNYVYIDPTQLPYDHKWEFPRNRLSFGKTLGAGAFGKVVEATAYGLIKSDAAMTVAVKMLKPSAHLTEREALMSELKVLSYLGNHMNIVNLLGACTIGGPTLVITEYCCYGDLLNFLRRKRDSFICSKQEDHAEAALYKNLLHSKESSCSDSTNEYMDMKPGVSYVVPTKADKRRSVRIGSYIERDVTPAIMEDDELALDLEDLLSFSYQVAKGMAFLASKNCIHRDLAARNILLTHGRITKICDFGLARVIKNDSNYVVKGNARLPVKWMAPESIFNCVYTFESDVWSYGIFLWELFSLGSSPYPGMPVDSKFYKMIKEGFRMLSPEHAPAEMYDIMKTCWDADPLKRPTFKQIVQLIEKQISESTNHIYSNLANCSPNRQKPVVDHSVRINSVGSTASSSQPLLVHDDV
Chain of KIT (human), P10721 [V559D/V654A] (P10721 whole entry V559D/V654A, looked up): as the sequence (P10721 whole entry D816V, looked up) above, with V559D, V654A, V816D counted along it
Chain of KIT (human), P10721 [V559D/T670I] (P10721 whole entry V559D/T670I, looked up): as the sequence (P10721 whole entry D816V, looked up) above, with V559D, T670I, V816D counted along it

- kinase still bound, per cent of control (AURKB (human)): 100%
- kinase still bound, per cent of control (BMP2K (human)): 100%
- kinase still bound, per cent of control (BRSK2 (human)): 85%
- kinase still bound, per cent of control (CIT (human)): 95%
- kinase still bound, per cent of control (CLK1 (human)): 66%
- kinase still bound, per cent of control (CLK4 (human)): 99%
- kinase still bound, per cent of control (CSNK2A2 (human)): 88%
- kinase still bound, per cent of control (DAPK3 (human)): 98%
- kinase still bound, per cent of control (DYRK1B (human)): 92%
- kinase still bound, per cent of control [1]: 92%
- kinase still bound, per cent of control [2]: 75%
- kinase still bound, per cent of control [3]: 92%
- kinase still bound, per cent of control (GAK (human)): 45%
- kinase still bound, per cent of control [4]: 100%
- kinase still bound, per cent of control [5]: 84%
- kinase still bound, per cent of control [6]: 100%
- kinase still bound, per cent of control (MAP2K3 (human)): 92%
- kinase still bound, per cent of control (MAP3K7 (human)): 100%
- kinase still bound, per cent of control (MAP4K2 (human)): 100%
- kinase still bound, per cent of control (MAPK8 (human)): 86%
- kinase still bound, per cent of control (MELK (human)): 80%
- kinase still bound, per cent of control (MKNK2 (human)): 0.55%
- kinase still bound, per cent of control (PIK3CG (human)): 100%
- kinase still bound, per cent of control (PIM2 (human)): 100%
- kinase still bound, per cent of control (PIM3 (human)): 84%
- kinase still bound, per cent of control (PIP5K1A (human)): 95%
- kinase still bound, per cent of control (PLK4 (human)): 67%
- kinase still bound, per cent of control (PRKD1 (human)): 87%
- kinase still bound, per cent of control (PRKD3 (human)): 85%
- kinase still bound, per cent of control (RIPK2 (human)): 100%
- kinase still bound, per cent of control (RPS6KA2 KD2 (human)): 97%
- kinase still bound, per cent of control (RPS6KA4 KD2 (human)): 88%
- kinase still bound, per cent of control (RPS6KA6 KD2 (human)): 60%
- kinase still bound, per cent of control (SRPK2 (human)): 100%
- kinase still bound, per cent of control (STK11 (human)): 100%
- kinase still bound, per cent of control (STK17B (human)): 100%
- kinase still bound, per cent of control (TAOK1 (human)): 100%
- kinase still bound, per cent of control (TLK1 (human)): 97%
- kinase still bound, per cent of control (TNIK (human)): 90%
- kinase still bound, per cent of control (TTK (human)): 95%
- kinase still bound, per cent of control [7]: 100%
- kinase still bound, per cent of control (ULK2 (human)): 100%
SMILES: COc1cc(N2CCN(C)CC2)ccc1Nc1ncc2c(n1)N(C)c1ccccc1N(C)C2=O

- kinase still bound, per cent of control (AURKB (human)): 1.4%
- kinase still bound, per cent of control (BMP2K (human)): 43%
- kinase still bound, per cent of control (BRSK2 (human)): 48%
- kinase still bound, per cent of control (CIT (human)): 95%
- kinase still bound, per cent of control (CLK1 (human)): 75%
- kinase still bound, per cent of control (CLK4 (human)): 100%
- kinase still bound, per cent of control (CSNK2A2 (human)): 58%
- kinase still bound, per cent of control (DAPK3 (human)): 100%
- kinase still bound, per cent of control (DYRK1B (human)): 100%
- kinase still bound, per cent of control [1]: 100%
- kinase still bound, per cent of control [2]: 24%
- kinase still bound, per cent of control [3]: 52%
- kinase still bound, per cent of control (GAK (human)): 37%
- kinase still bound, per cent of control [4]: 69%
- kinase still bound, per cent of control [5]: 73%
- kinase still bound, per cent of control [6]: 58%
- kinase still bound, per cent of control (MAP2K3 (human)): 84%
- kinase still bound, per cent of control (MAP3K7 (human)): 58%
- kinase still bound, per cent of control (MAP4K2 (human)): 80%
- kinase still bound, per cent of control (MAPK8 (human)): 100%
- kinase still bound, per cent of control (MELK (human)): 100%
- kinase still bound, per cent of control (MKNK2 (human)): 8.4%
- kinase still bound, per cent of control (PIK3CG (human)): 4.2%
- kinase still bound, per cent of control (PIM2 (human)): 100%
- kinase still bound, per cent of control (PIM3 (human)): 100%
- kinase still bound, per cent of control (PIP5K1A (human)): 100%
- kinase still bound, per cent of control (PLK4 (human)): 1.8%
- kinase still bound, per cent of control (PRKD1 (human)): 98%
- kinase still bound, per cent of control (PRKD3 (human)): 69%
- kinase still bound, per cent of control (RIPK2 (human)): 66%
- kinase still bound, per cent of control (RPS6KA2 KD2 (human)): 91%
- kinase still bound, per cent of control (RPS6KA4 KD2 (human)): 89%
- kinase still bound, per cent of control (RPS6KA6 KD2 (human)): 63%
- kinase still bound, per cent of control (SRPK2 (human)): 100%
- kinase still bound, per cent of control (STK11 (human)): 100%
- kinase still bound, per cent of control (STK17B (human)): 79%
- kinase still bound, per cent of control (TAOK1 (human)): 0.9%
- kinase still bound, per cent of control (TLK1 (human)): 69%
- kinase still bound, per cent of control (TNIK (human)): 83%
- kinase still bound, per cent of control (TTK (human)): 78%
- kinase still bound, per cent of control [7]: 71%
- kinase still bound, per cent of control (ULK2 (human)): 6.2%
SMILES: CN1C(=O)c2ccccc2N(C)c2nc(Nc3ccc(N4CCC(O)CC4)cc3)ncc21

Source: the kinase profiling compilation of Christmann-Franck et al. (2016)
